Entries after “also recorded” stand apart in the source; their conditions may differ. Like-named read-outs stand apart in the source and are kept apart here.
Experiments:
[1] = test system: 2019 novel coronavirus (SARS-CoV-2) original strain; experiment: Replication inhibitory activity against SARS-CoV-2 original strain in Vero E6 cells (qRT-PCR); assay type: cell-based; details: read-out: Inhibition against viral replication of the original strain EC50
Vero E6 cells = experiment: Cytotoxicity test on Vero E6 cells (CCK8); assay type: cell-based; details: Vero E6 cells
Description: In this embodiment, the half toxicity concentration of each embodiment on Vero E6 cells was determined by CCK8 kit analysis (CC50).

[2] = test system: A549 lung epithelial cells; experiment: Anti TGF-β1-induced fibrosis assay in A549 lung epithelial cells (microscopy, Western Blot); assay type: cell-based; details: 10 ng/ml TGF-β1, 1 μM compound
Description: Cell injury was observed by microscopic observation; cell viability was analyzed by CCK-8 assay; and protein expression levels of fibrosis-related indicators were detected by Western Blot method. A549 cells were purchased from ATCC; CCK-8 kit was purchased from Meilunbio, item number MA0218-3; TGF-β1 was purchased from MCE, item number HY-P70543; primary antibodies: Collagen was purchased from ARG21965, item no. arigobio; α-smooth muscle actin was purchased from CST, item no. mAb #19245; VIMENTN was purchased from CST, item no. mAb #5741; GAPDH was purchased from Yeasen, item no. 30201ES20.
Experimental methods: first, 8000 cells/well A549 cells were placed in 96-well plates and incubated overnight. On the second day, 0.1% DMSO was added to the control cells, 10 ng/ml TGF-β1 as well as 0.1% DMSO was added to the model group, 10 ng/ml TGF-β1 as well as 1 μM of the compounds (oxy, 1, 2, tet, 3, 4, 6, 58) was added to the treatment group, and the 96-well plates were sterilized and incubated in a constant temperature incubator for 72 hours. Finally, cell injury and growth were observed using a microscope; the viability of the cells was detected by CCK-8 kit.

hNav1.5 sodium channel [3] = target: T1, hNav1.5 sodium channel (Homo sapiens, UniProt Q14524); experiment: Nav1.5 sodium channel whole-cell membrane clamp in CHL cells
T1 sequence (Q14524 whole entry): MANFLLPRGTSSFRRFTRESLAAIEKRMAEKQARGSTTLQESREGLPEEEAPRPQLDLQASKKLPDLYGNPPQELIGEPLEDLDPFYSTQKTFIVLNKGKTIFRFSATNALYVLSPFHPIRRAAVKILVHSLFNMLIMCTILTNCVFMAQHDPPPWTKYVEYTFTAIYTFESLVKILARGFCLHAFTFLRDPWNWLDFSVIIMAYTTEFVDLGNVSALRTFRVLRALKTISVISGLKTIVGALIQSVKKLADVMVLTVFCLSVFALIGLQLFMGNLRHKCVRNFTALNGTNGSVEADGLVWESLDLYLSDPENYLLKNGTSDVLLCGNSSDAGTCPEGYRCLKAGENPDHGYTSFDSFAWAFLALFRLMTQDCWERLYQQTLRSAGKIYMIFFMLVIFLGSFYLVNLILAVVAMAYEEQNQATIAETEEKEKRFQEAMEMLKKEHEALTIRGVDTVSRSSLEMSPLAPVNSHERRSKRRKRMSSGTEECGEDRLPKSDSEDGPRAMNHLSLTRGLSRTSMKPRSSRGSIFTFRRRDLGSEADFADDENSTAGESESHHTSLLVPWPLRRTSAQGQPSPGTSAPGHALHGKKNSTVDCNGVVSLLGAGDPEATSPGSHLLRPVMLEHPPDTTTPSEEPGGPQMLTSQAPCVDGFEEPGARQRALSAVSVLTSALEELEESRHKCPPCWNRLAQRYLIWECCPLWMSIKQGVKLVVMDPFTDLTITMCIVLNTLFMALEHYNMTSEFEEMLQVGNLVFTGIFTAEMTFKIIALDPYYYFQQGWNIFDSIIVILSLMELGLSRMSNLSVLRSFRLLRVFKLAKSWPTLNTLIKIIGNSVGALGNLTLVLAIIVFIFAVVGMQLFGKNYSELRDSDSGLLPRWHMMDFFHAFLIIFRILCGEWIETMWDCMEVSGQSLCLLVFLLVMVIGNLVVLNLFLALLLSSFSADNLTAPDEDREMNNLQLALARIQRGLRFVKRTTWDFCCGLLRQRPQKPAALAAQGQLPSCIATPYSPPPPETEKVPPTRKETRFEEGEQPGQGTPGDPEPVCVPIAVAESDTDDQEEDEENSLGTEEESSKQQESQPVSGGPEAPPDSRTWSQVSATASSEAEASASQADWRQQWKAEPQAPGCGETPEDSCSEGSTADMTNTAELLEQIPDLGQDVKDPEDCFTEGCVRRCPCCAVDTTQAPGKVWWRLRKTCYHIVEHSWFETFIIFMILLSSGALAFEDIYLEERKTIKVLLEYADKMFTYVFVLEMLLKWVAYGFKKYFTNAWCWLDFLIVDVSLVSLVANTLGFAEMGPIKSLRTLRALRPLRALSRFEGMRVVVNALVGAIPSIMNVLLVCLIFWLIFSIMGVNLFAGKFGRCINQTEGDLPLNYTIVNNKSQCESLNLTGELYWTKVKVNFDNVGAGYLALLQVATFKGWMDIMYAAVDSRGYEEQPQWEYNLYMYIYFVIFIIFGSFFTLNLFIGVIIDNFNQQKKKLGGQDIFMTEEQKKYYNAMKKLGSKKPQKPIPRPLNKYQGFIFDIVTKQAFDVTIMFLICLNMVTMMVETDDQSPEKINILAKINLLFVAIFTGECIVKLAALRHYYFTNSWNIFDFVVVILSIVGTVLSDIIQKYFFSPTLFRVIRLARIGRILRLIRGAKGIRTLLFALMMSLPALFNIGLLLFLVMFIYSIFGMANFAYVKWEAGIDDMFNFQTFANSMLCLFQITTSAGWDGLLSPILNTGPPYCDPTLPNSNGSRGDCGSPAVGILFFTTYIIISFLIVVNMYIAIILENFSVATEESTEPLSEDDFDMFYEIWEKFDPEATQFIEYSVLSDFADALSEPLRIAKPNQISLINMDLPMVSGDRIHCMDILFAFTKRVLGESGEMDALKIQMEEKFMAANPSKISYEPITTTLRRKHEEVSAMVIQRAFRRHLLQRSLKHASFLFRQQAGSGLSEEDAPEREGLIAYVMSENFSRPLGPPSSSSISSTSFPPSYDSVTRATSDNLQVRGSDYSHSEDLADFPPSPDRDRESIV
Description: (§2) Nav1.5: CHL cells stably expressing hNav1.5 sodium channel was used to record hNav1.5 sodium channel currents by whole-cell membrane clamp technique at room temperature. The glass microelectrodes were made from glass electrode blanks (BF150-86-10, Sutter) by pulling through a puller, and the tip resistance was about 2-5 MΩ after filling the electrode with internal fluid, and the glass microelectrodes were connected to Axopatch 200B (Molecular Devices) membrane clamp amplifier by inserting the glass microelectrodes into the amplifier probe. Clamp voltage and data recording were controlled and recorded by pClamp 10 software via a computer with a sampling frequency of 10 kHz and a filtering frequency of 2 kHz. After obtaining whole-cell recordings, the cells were clamped at −80 mV, given a hyperpolarizing voltage of 200 ms to −120 mV, and then depolarized to −20 mV for 20 ms to evoke a Nav1.5 current. This voltage stimulus was given every 10 s; after the hNav1.5 sodium current was determined to be stabilized (for at least 1 min), begins the dosing process. Concentrations of the sample to be tested were administered continuously starting from low test concentration, and each test concentration was given for 1 min to reach steady state of action or for a maximum of 3 min. A minimum of 3 cells (n≥3) were tested at each concentration of the sample to be tested, and a minimum of 2 cells (n≥2) were tested at each concentration of the positive control.
(§3) Extracellular fluid formulation (mM): 140 NaCl, 5 KCl, 1 CaCl2, 1.25 MgCl2, 10 HEPES and 10 Glucose, adjusting the pH to 7.4 with NaOH.
(§4) Intracellular fluid formulation (mM): 130 CsF, 10 NaCl, 10 EGTA and 10 HEPES, adjusting the pH to 7.2 with CsOH.

[4] = test system: Th1/Th17 differentiation of CD4+T cells; experiment: CD4+T cell in vitro differentiation assay (Th1 IFN-γ / Th17 IL-17A, flow cytometry); set-up: inhibitory effect on Th1/Th17 differentiation at lower concentration: dose or concentration left out as unconfirmed; details: 72 h; for inhibitory effect on Th1/Th17 differentiation: 10 μM, IFN-γ/IL-17A by flow cytometry
Description: CD4^+T cell isolation: CD4^+T cells were isolated from the spleens of 7-8 week old C57BL/6 mice using the Mouse CD4^+T Cell Sorting Kit (Dynabeads® Untouched™ Mouse CD4 Cells Isolation Kit, Invitrogen, Catalog nos: 11415D).
In vitro differentiation of CD4^+T cells: the isolated CD4^+T cells were inoculated into 96-well plates while different concentrations of compounds were added, and then corresponding cytokines and antibodies were added: anti-CD28 (2 μg/ml), anti-CD3 (2 μg/ml), Anti-IL-4 (10 μg/ml), IL-12 (10 ng/ml), Anti-IFN-γ (10 μg/ml), anti-IL-4 (10 μg/ml), IL-6 (30 ng/ml), TGF-β1 (3 ng/ml), IL-10 (10 ng/ml), IL-23 (10 ng/ml), and TNF-α (10 ng/ml). Cells were cultured in 5% CO2 at 37° C. in a cell culture chamber for 72 h. Cells were collected, stained intracellularly, analyzed by flow cytometry, and tested for IFN-γ/IL-17A content to assess the effect of compounds on CD4^+T differentiation into Th1/Th17 in vitro.

hERG potassium channel = target: T2, hERG potassium channel (Homo sapiens, UniProt Q12809); experiment: hERG potassium channel whole-cell membrane clamp in CHO cells; assay type: cell-based; details: for IC50: CHO cells stably expressing hERG, whole-cell membrane clamp
T2 construct: expressed in transfected cells
T2 sequence (Q12809 whole entry): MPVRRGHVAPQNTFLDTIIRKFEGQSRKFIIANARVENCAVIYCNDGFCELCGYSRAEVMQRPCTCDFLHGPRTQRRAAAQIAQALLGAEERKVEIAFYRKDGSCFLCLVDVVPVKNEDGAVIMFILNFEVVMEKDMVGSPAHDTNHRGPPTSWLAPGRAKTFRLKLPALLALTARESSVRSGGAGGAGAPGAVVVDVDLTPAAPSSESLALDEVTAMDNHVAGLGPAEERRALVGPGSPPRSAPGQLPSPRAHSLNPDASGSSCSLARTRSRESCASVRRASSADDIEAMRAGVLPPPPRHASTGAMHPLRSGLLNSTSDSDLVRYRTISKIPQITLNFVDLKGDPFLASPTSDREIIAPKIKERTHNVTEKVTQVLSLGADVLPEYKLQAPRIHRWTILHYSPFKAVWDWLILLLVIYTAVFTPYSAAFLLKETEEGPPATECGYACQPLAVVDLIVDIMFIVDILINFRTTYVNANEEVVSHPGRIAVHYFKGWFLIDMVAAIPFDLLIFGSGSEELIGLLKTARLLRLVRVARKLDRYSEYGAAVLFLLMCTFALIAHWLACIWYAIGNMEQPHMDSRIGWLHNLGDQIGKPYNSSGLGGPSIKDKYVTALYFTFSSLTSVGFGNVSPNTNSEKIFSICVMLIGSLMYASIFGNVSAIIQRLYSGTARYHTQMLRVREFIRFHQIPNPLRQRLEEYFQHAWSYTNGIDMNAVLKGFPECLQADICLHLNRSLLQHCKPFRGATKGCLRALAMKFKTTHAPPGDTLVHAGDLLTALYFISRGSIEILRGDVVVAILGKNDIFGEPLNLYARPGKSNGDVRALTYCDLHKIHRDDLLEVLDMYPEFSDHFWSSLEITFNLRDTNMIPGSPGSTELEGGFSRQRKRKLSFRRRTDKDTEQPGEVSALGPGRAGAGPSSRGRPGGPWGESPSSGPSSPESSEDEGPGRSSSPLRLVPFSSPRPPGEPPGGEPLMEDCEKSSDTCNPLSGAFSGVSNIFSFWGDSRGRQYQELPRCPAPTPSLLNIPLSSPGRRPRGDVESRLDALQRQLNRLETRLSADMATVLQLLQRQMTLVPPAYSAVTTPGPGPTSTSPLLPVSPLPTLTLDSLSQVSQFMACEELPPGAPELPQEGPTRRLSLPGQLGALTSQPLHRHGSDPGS
Description: Compounds were given for at least 1 min for each tested concentration, and at least 2 cells (n≥2) were tested per concentration.

[5] = test system: inflammatory factor mRNA in Raw 264.7 cells; experiment: mRNA levels of inflammatory indicators in TNF-α-induced inflammation model of Raw264.7 cells (Q-PCR); assay type: cell-based; details: 10 ng/ml TNF-α, 1 μM compound, 16 hours
Description: In this embodiment, the effect of compounds on TNF-α-induced inflammation levels in Raw 264.7 cells was analyzed by cell viability combined with inflammatory factor expression levels; cell viability was analyzed by CCK-8 assay; and mRNA expression levels of inflammation-associated indicators were detected by real-time quantitative PCR (Q-PCR) method. Raw 264.7 cells were purchased from ATCC, CCK-8 kit was purchased from Meilunbio, item number MA0218-3, TNF-α was purchased from Merck, item no. GF314.
(§1) Experimental methods: first, 5*10^4 cells/well Raw 264.7 cells were placed in 12-well plates and incubated overnight. On the second day, 0.1% DMSO was added to the control cells, 10 ng/ml TNF-α as well as 0.1% DMSO was added to the model group, 10 ng/ml TNF-α as well as 1 μM of the compounds (oxyacanthine hydrochloride (oxy), 1, 2, tetrandrine (tet), 3, 4, 6, 58) was added to the treatment group, and the 12-well plates were sterilized and incubated in a constant temperature incubator for 16 hours. Cellular mRNA was extracted by lysis using Trizol (Yisheng, 10606ES60) and detected by real-time quantitative PCR after reverse transcription, the primers are the same as in Table 2.

[6] = test system: IL-6, IL-1β, CXCL9 mRNA in Raw 264.7 cells; experiment: mRNA levels of inflammatory indicators in LPS-induced inflammation model of Raw264.7 cells (Q-PCR); assay type: cell-based; details: 1 μg/ml LPS, 1 μM compound, 16 hours
Description: In this example, the effect of the compounds of the present invention on the inflammation level of the LPS-induced inflammation model of Raw 264.7 cells was analyzed by cell viability in combination with inflammatory factors; cell viability was analyzed by CCK-8 assay; and mRNA expression levels of inflammation-related indicators were detected by a real-time quantitative PCR (Q-PCR) method. Raw 264.7 cells were purchased from ATCC; CCK-8 kit was purchased from Meilunbio, item no. MA0218-3; LPS was purchased from Sigma, item no. L2630.
as §1, with “1 μg/ml LPS” for “10 ng/ml TNF-α”, “transcription.” for “transcription, the primers are the same as in Table 2.”

hNav1.5 sodium channel [7] = target: T1, hNav1.5 sodium channel
Description: as §2, §3, §4

Structure (SMILES) | EC50 ([1]; Severe acute respiratory syndrome coronavirus 2, Vero C1008, Vero E6 cells, MOI 0.01, 24 h p.i., viral copy number by qRT-PCR) [µM] | cytotoxicity on Vero E6 cells compared with oxyacanthine hydrochloride (Vero E6 cells) | alleviation of TGF-β1-induced fibrosis in A549 lung epithelial cells (Collagen1, α-SMA by WB) [2] | IC50 (hNav1.5 sodium channel [3]) [µM] | activity against Nav1.5 channels (hNav1.5 sodium channel [3]) | inhibitory effect on Th1/Th17 differentiation [4] | activity against hERG ion channels (hERG potassium channel) | IC50 (hERG potassium channel; human, CHO cells stably expressing hERG potassium channels, pH 7.4) [µM] | inhibition of inflammatory factors (mRNA) in TNF-α-induced inflammation model [5] | inhibition of inflammatory factors (IL-6, IL-1β, CXCL9 mRNA) in LPS-induced inflammation model [6] | EC50 ([1]; Severe acute respiratory syndrome coronavirus 2, Vero C1008, 24 h) [µM] | activity against Nav1.5 channels (hNav1.5 sodium channel [7]) | inhibitory effect on Th1/Th17 differentiation at lower concentration [4] | IC50 (hERG potassium channel) [µM]
COc1cc2c3cc1Oc1c(OC)c(OC)cc4c1[C@H](Cc1ccc(cc1)Oc1cc(ccc1C(N)=O)C[C@H]3N(C)CC2)N(C)CC4 [Compound 4] | 0.1 to 1 | weaker cytotoxicity than oxyacanthine hydrochloride | alleviated; also recorded: partially alleviate fibrosis | > 50 | weakly active | strong inhibitory effect | weakly active | 20 | significantly inhibited inflammatory factors; also recorded: significant inhibition | significantly inhibited inflammatory factors; also recorded: significant inhibition |  |  |  | 
CCCCNC(=O)Oc1ccc2cc1Oc1ccc(cc1)C[C@H]1c3c(cc(OC)c(OC)c3Oc3cc4c(cc3OC)CCN(C)[C@@H]4C2)CCN1C [Compound 2] |  | weaker cytotoxicity than oxyacanthine hydrochloride | alleviated; also recorded: partially alleviate fibrosis | > 10 |  | strong inhibitory effect | weakly active |  | significantly inhibited inflammatory factors; also recorded: significant inhibition | significantly inhibited inflammatory factors; also recorded: significant inhibition | 0.1 to 1 | weakly active | strong inhibitory effect | 19

Source: patent publication US20250296937A1, “CYCLIC BISBENZYL TETRAHYDROISOQUINOLINE COMPOUND, AND PREPARATION METHOD THEREFOR AND USE THEREOF” (Shanghai Institute of Materia Medica, Chinesse Academy of …, priority 2021, published 2025)
